Results published in ChEMBL document CHEMBL6096639, “Discovery of the first selective and potent PROTAC degrader for the pseudokinase TRIB2” (Eur J Med Chem, 2025).
Values belong to the molecule of their own block, whether it stands above or below them. Calls of active or inactive are those of the source. The rule behind the calls is not given here.

Legend:
[1] = Antiproliferative activity against human LTL-331R-CL cells assessed as cell viability for 5 days by CTG assay; format: functional, cell-based; details: 120 h
PC-3 [2] = test: Antiproliferative activity against human PC-3 cells assessed as cell viability for 5 days by CTG assay; format: functional, cell-based; details: PC-3, 120 h
[3] = biological target: T1, Tribbles homolog 2 (Homo sapiens) (UniProt Q92519); test: Induction of thermal stabilization of TRIB2 in human PC-3 cells […] at 2 uM preincubated for 3 hrs followed by compound washout and incubated under 45 to 50 degreeC for 3 mins by CETSA based immunoblotting analysis; format: cell-based
T1 sequence (whole entry): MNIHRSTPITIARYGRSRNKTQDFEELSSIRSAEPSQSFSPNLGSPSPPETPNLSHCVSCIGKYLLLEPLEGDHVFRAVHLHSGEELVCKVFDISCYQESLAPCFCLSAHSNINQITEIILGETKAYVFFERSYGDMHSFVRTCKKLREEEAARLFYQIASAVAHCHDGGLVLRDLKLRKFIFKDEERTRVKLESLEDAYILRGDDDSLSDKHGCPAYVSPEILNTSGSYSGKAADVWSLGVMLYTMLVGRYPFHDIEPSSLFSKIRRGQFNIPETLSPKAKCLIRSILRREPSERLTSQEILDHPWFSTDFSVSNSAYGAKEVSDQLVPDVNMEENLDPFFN

HepG2 = test: Antiproliferative activity against human HepG2 cells assessed as cell viability; format: functional
Tribbles homolog 2 = biological target: T2, Tribbles homolog 2 (Homo sapiens, UniProt Q92519); test: Inhibition of TRIB2 (unknown origin) assessed as reduction in ATP binding affinity incubated for 120 mins in presence of Mg/ATP by radiometric kinase assay
T2 sequence (Q92519 whole entry): T1 sequence (whole entry)

A549 = test: Antiproliferative activity against human A549 cells assessed as cell viability; format: functional
[4] = biological target: T3, Protein cereblon/Tribbles homolog 2 (Homo sapiens, UniProt Q96SW2+Q92519); test: PROTAC activity at CRBN/TRIB2 in human PC-3 cells assessed as induction of TRIB2 degradation by measuring maximal efficacy at 100 nM measured after 24 hrs by immunoblot analysis relative to control; format: cell-based
Target sequence in this assay (Q96SW2 whole entry, looked up, one chain of several): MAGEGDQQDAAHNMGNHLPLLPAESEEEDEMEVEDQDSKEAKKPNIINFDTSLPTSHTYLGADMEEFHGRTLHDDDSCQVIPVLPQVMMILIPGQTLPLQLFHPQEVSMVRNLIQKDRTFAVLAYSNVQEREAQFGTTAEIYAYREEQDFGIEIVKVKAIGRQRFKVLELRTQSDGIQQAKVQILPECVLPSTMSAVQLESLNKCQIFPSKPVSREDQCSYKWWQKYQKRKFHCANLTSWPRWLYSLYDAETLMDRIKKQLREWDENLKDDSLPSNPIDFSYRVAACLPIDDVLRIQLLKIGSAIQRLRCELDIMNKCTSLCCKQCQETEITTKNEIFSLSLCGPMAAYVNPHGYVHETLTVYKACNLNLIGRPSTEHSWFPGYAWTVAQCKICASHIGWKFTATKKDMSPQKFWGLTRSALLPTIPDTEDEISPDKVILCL

[5] = biological target: T4, von Hippel-Lindau disease tumor suppressor/Tribbles homolog 2 (Homo sapiens) (UniProt P40337+Q92519); test: PROTAC activity at VHL/TRIB2 in human PC-3 cells assessed as induction of TRIB2 degradation at 100 nM for 24 hrs by immunoblotting analysis; format: cell-based
T4 sequence (P40337 whole entry, looked up, one chain of several): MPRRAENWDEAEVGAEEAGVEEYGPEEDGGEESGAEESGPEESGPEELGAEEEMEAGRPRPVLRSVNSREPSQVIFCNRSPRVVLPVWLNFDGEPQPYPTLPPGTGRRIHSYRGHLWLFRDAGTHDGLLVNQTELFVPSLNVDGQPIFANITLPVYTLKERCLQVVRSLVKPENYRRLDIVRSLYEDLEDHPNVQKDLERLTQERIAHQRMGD

LTL-331R-CL = test: Antiproliferative activity against human LTL-331R-CL cells assessed as cell viability at 1 uM by CTG assay; format: functional, cell-based
[6] = biological target: T3, Protein cereblon/Tribbles homolog 2; test: PROTAC activity at CNRB/TRIB2 in human LTL-331R-CL cells assessed as induction of TRIB2 degradation at 1 uM for 4 hrs by immunoblotting assay; format: cell-based
Target sequence in this assay (Q96SW2 whole entry, looked up, one chain of several): as the sequence (Q96SW2 whole entry, looked up, one chain of several) above

[7] = biological target: T3, Protein cereblon/Tribbles homolog 2; test: PROTAC activity at CRBN/TRIB2 in human PC-3 cells assessed as induction of TRIB2 degradation at 500 nM in presence of 1 uM bortezomib proteasome inhibitor pretreatment for 16 hrs by Western blot analysis; format: cell-based
Target sequence in this assay (Q96SW2 whole entry, looked up, one chain of several): as above

[8] = biological target: T3, Protein cereblon/Tribbles homolog 2; test: PROTAC activity at CNRB/TRIB2 in human PC-3 cells assessed as induction of TRIB2 degradation at 0.5 uM pretreated with pomalidomide followed by compound addition and measured after 16 hrs by immunoblotting assay; format: cell-based
Target sequence in this assay (Q96SW2 whole entry, looked up, one chain of several): as above

[9] = biological target: T3, Protein cereblon/Tribbles homolog 2; test: PROTAC activity at CNRB/TRIB2 in human LTL-331R-CL cells assessed as induction of TRIB2 degradation at 1 uM for 4 hrs by comprehensive proteomic analysis using a tandem mass tag (TMT) labeled mass spectrometry; format: cell-based
Target sequence in this assay (Q96SW2 whole entry, looked up, one chain of several): as above

PC-3 [10] = test: Antiproliferative activity against human PC-3 cells assessed as cell viability at 1 uM by CTG assay; format: functional, cell-based
[11] = biological target: T3, Protein cereblon/Tribbles homolog 2; test: PROTAC activity at CRBN/TRIB2 in human NCI-H660 cells assessed as induction of TRIB2 degradation at 1 uM by immunoblotting analysis; format: cell-based
Target sequence in this assay (Q96SW2 whole entry, looked up, one chain of several): as above

[12] = biological target: T3, Protein cereblon/Tribbles homolog 2; test: PROTAC activity at CRBN/TRIB2 in human LTL-331R-CL cells assessed as induction of TRIB2 degradation at 1 uM by immunoblotting analysis; format: cell-based
[13] = biological target: T4, von Hippel-Lindau disease tumor suppressor/Tribbles homolog 2 (Homo sapiens); test: PROTAC activity at VHL/TRIB2 in human PC-3 cells assessed as induction of TRIB2 downregulation at 1000 nM for 24 hrs by immunoblotting analysis; format: cell-based
[14] = biological target: T3, Protein cereblon/Tribbles homolog 2; test: PROTAC activity at CRBN/TRIB2 in human PC-3 cells assessed as induction of TRIB2 degradation for 24 hrs by immunoblot analysis; format: cell-based
[15] = biological target: T3, Protein cereblon/Tribbles homolog 2; test: PROTAC activity at CRBN/TRIB2 in human PC-3 cells assessed as half maximal degradation by measuring half life at 500 nM by immunoblotting analysis; format: cell-based
[16] = biological target: T3, Protein cereblon/Tribbles homolog 2; test: PROTAC activity at CRBN/TRIB2 in human PC-3 cells assessed as induction of TRIB2 degradation by measuring maximal efficacy at 1 nM measured after 24 hrs by immunoblot analysis relative to control; format: cell-based

Compound: CN1C(=O)CCC(N2C(=O)c3ccc(NCCCCCCCCCC(=O)N4CCc5ccc(NC(=O)c6n[nH]c7ccc(-c8cccnc8F)cc67)cc5C4)cc3C2=O)C1=O (stereo unspecified)
IC50 [1]: > 30000 nM
IC50 (PC-3 [2]): > 5000 nM

Compound: O=C(Nc1ccc2c(c1)CNCC2)c1n[nH]c2ccc(-c3cccnc3F)cc12
IC50 [1]: 868 nM
Activity [3]: Active
Activity (HepG2): 10%
IC50 (Tribbles homolog 2): 65.2 nM
IC50 (PC-3 [2]): 802 nM
Activity (A549): 12%

Compound: O=C1CCC(N2C(=O)c3ccc(NCCCCCCCCCC(=O)N4CCc5ccc(NC(=O)c6n[nH]c7ccc(-c8cccnc8F)cc67)cc5C4)cc3C2=O)C(=O)N1 (stereo unspecified)
Activity [5]: 100%
Activity (LTL-331R-CL): Active
IC50 [1]: 30.4 nM
Activity [6]: Active
Activity [7]: inactive
Activity [8]: inactive
Activity [3]: Active
Activity [9]: Active
Activity (PC-3 [10]): Active
Activity [11]: Time-dependent-effect
Activity [12]: Active
Activity [13]: Active; Mild Trib2 Degradation Observed
Emax [4]: 92%
Activity [14]: Dose-dependent-effect
DC50 [14]: 16.8 nM
T1/2 [15]: > 5.5 h
IC50 (PC-3 [2]): 3.9 nM

Compound: O=C1CCC(N2C(=O)c3ccc(NCCCCCC(=O)N4CCc5ccc(NC(=O)c6n[nH]c7ccc(-c8cccnc8F)cc67)cc5C4)cc3C2=O)C(=O)N1 (stereo unspecified)
Emax [16]: 24.5%
Emax [4]: 85.6%

Continued, in another order:

Emax [4]: 58.2%
Compound: O=C1CCC(N2C(=O)c3ccc(NCCCCCCCC(=O)N4CCc5ccc(NC(=O)c6n[nH]c7ccc(-c8cccnc8F)cc67)cc5C4)cc3C2=O)C(=O)N1 (stereo unspecified)

Emax [4]: 84.1%
Compound: O=C1CCC(N2C(=O)c3ccc(NCCCC(=O)N4CCc5ccc(NC(=O)c6n[nH]c7ccc(-c8cccnc8F)cc67)cc5C4)cc3C2=O)C(=O)N1 (stereo unspecified)

IC50 (PC-3 [2]): > 5000 nM
Compound: Nc1cccc2c1C(=O)N(C1CCC(=O)NC1=O)C2=O (stereo unspecified) [POMALIDOMIDE]
IC50 [1]: > 30000 nM
